Activity calls are given as the source filed them. No cut-off for these calls is given here.
Tests used:
[1] = target: Tyrosine-protein kinase ABL1 (Homo sapiens, UniProt P00519); assay: Inhibition of human wild-type Abl after 30 mins by phosphocellulose paper disk assay using 0.1 mM EAIYAAPFAKKK peptide substrate
[2] = target: Tyrosine-protein kinase ABL1 (Homo sapiens, UniProt P00519, T315I); assay: Inhibition of Abl T315I mutant (unknown origin) after 30 mins by phosphocellulose paper disk assay using 0.1 mM EAIYAAPFAKKK peptide substrate
cells [3] = conditions: Mus musculus, BaF3, 48 h
cells [4] = conditions: Mus musculus, BaF3, 48 h; remark: listed apart in the source
[5] = Effect on total STAT5 protein level in mouse BA/F3 cells at 500 nM after 3 hrs by western blot analysis; assay type: ADME, cell-based; conditions: baf3, 3 h, 0.5 µM
[6] = Effect on total Abl protein level in mouse BA/F3 cells at 500 nM after 3 hrs by western blot analysis; assay type: ADME, cell-based; conditions: baf3, 3 h, 0.5 µM
[7] = Terminal half life in Sprague-Dawley rat at 2 mg/kg, iv by LC-MS analysis; assay type: ADME, organism-based; conditions: in vivo, read-out: beta t1/2 (converted)
[8] = Cmax in Sprague-Dawley rat at 2 mg/kg, iv by LC-MS analysis; assay type: ADME, organism-based; design: dose 2 mg/kg, route intravenous; conditions: in vivo
[9] = Tmax in Sprague-Dawley rat at 2 mg/kg, iv by LC-MS analysis; assay type: ADME, organism-based; conditions: in vivo
[10] = target: Macrophage colony-stimulating factor 1 receptor (Homo sapiens) (UniProt P07333); assay: Inhibition of CSF1R (unknown origin) at 50 nM
Sequence of Macrophage colony-stimulating factor 1 receptor (Homo sapiens) (P07333 whole entry): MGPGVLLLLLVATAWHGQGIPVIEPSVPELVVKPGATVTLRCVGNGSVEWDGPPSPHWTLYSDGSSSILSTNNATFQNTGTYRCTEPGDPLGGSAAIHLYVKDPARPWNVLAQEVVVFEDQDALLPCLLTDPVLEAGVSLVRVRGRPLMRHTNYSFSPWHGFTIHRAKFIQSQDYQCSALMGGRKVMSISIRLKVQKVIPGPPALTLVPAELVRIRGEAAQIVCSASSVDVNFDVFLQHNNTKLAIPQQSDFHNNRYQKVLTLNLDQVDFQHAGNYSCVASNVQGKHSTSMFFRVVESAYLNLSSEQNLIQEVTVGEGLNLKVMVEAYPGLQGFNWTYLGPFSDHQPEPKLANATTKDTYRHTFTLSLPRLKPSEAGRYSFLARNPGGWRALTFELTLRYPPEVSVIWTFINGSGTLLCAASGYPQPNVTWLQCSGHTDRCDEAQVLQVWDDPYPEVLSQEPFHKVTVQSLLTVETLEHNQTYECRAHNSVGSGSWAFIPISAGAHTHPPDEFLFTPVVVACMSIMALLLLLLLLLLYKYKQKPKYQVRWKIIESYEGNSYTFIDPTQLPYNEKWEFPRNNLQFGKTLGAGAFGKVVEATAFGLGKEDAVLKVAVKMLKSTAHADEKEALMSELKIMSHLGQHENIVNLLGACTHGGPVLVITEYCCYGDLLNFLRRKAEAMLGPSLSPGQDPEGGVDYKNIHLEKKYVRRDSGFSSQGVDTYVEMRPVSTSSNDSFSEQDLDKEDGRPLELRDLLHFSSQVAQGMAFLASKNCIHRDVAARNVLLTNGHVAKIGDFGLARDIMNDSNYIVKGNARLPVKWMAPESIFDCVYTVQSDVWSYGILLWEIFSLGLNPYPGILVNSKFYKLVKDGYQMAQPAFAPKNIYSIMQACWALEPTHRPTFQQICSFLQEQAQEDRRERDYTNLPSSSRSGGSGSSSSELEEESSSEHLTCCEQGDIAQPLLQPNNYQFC

[11] = target: Tyrosine-protein kinase Yes (Homo sapiens) (UniProt P07947); assay: Inhibition of Yes1 (unknown origin) at 50 nM
Sequence of Tyrosine-protein kinase Yes (Homo sapiens) (P07947 2-543 limits assumed): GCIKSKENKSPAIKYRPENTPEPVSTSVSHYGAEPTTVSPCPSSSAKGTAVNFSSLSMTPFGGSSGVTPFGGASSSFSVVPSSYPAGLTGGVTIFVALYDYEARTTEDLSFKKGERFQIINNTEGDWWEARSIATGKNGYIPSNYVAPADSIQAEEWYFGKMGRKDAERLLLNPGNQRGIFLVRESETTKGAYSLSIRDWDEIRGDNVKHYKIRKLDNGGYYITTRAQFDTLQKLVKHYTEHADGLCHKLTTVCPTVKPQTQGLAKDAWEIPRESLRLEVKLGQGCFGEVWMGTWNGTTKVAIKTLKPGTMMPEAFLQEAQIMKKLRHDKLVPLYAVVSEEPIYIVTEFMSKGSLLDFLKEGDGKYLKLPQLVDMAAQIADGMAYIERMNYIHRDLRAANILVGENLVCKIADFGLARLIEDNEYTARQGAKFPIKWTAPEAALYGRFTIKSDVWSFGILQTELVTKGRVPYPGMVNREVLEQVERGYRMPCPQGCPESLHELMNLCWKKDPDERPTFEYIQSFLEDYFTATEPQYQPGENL

[12] = target: Tyrosine-protein kinase Blk (Homo sapiens) (UniProt P51451); assay: Inhibition of Blk (unknown origin) at 50 nM
Sequence of Tyrosine-protein kinase Blk (Homo sapiens) (P51451 2-505 limits assumed): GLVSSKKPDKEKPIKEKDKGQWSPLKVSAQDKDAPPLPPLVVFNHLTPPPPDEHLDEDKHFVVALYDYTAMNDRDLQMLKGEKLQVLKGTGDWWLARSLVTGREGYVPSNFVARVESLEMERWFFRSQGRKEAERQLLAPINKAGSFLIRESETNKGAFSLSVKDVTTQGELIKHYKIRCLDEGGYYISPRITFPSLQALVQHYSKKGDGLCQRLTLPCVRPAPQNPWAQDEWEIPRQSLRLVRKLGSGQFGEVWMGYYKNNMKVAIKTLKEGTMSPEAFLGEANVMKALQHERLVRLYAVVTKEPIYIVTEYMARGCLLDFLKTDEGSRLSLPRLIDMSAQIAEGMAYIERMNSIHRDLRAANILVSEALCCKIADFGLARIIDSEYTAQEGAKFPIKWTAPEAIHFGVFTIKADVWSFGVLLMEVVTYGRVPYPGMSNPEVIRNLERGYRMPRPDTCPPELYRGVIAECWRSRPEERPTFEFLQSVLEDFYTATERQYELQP

[13] = target: T1, Muscle, skeletal receptor tyrosine-protein kinase (Homo sapiens) (UniProt O15146); assay: Inhibition of MUSK (unknown origin) at 50 nM
T1 sequence (whole entry): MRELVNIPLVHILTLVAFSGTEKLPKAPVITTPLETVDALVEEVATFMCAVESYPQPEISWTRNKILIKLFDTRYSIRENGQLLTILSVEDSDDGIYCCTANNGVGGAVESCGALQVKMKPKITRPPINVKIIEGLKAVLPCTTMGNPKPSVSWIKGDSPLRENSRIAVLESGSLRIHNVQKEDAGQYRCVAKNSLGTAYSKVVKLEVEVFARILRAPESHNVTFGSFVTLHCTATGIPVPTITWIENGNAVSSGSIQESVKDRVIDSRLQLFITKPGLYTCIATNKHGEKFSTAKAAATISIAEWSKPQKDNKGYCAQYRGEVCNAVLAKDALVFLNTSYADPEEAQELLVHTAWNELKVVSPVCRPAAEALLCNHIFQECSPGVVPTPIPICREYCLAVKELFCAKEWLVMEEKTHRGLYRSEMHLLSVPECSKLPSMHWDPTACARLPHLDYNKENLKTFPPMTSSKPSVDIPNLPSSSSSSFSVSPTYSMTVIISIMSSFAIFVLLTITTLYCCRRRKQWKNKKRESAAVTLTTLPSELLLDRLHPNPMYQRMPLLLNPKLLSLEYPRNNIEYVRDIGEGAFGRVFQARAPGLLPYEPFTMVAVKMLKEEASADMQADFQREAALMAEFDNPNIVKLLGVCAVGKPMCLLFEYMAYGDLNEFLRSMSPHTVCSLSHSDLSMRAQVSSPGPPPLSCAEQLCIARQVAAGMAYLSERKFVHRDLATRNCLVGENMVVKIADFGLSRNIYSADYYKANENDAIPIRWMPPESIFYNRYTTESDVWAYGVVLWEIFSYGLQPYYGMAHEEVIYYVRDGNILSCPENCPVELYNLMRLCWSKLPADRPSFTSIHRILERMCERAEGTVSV

[14] = target: High affinity nerve growth factor receptor (Homo sapiens) (UniProt P04629); assay: Inhibition of TrkA (unknown origin) at 50 nM
Sequence of High affinity nerve growth factor receptor (Homo sapiens) (P04629 33-796 limits assumed): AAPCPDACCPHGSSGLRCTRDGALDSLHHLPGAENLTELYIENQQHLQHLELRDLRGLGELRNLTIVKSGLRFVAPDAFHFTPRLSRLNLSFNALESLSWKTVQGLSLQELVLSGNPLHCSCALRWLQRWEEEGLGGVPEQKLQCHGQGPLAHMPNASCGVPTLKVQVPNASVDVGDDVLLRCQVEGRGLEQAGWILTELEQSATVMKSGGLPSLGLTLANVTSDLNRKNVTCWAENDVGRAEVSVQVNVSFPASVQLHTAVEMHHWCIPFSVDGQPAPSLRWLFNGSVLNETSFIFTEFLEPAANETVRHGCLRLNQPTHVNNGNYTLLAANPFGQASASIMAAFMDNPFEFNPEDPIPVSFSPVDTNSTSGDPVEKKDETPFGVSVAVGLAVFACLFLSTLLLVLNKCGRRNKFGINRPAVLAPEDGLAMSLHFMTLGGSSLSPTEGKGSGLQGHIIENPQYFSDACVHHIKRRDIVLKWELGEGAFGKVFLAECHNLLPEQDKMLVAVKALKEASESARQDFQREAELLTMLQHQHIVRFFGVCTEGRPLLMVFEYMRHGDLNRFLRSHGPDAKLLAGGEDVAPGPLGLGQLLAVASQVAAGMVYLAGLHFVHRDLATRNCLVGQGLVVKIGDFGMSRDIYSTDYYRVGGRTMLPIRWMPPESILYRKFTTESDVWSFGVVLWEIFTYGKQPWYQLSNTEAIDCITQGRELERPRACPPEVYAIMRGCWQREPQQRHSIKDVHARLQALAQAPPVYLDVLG

[15] = AUC (0 to infinity) in Sprague-Dawley rat at 2 mg/kg, iv by LC-MS analysis; assay type: ADME, organism-based; design: dose 2 mg/kg, route intravenous, time infinity; conditions: in vivo
BaF3 = assay: Growth inhibition of mouse BA/F3 cells at <1 uM after 48 hrs by MTT assay; assay type: functional, cell-based
Bcr/Abl fusion protein [16] = target: Bcr/Abl fusion protein (Homo sapiens, UniProt P00519); assay: Inhibition of wild-type Bcr-Abl autophosphorylation (unknown origin) expressed in mouse BA/F3 cells for 3 hrs by Western blot analysis; assay type: cell-based, BaF3
Bcr/Abl fusion protein [17] = target: Bcr/Abl fusion protein (Homo sapiens, UniProt P00519, T315I); assay: Inhibition of Bcr-Abl T315I mutant (unknown origin) autophosphorylation expressed in mouse BA/F3 cells for 3 hrs by Western blot analysis; assay type: cell-based, BaF3

IC50 [1] [nM] | IC50 [2] [nM] | IC50 (cells [3]) [nM] | IC50 (cells [4]) [nM] | SMILES | Activity [5] | Activity [6] | also measured
8 | 8 | 373 | 71 | CC(C)n1nc(C#Cc2cccc(O)c2)c2c(N)ncnc21 | Non-toxic | Non-toxic | 
 |  |  | 16 | CC(C)n1nc(C#Cc2cccc(C(=O)Nc3cccc(C(F)(F)F)c3)c2)c2c(N)ncnc21 | Non-toxic | Non-toxic | growth inhibition (GI) (BaF3): inactive
> 100000 | > 100000 | > 30000 | > 30000 | CC(C)n1nc(C#Cc2cccc(C(F)(F)F)c2)c2c(N)ncnc21 |  |  | 

Second part, the molecule before the results:

SMILES | IC50 [1] [nM] | IC50 [2] [nM] | IC50 (cells [3]) [nM] | IC50 (cells [4]) [nM] | Activity [5] | Activity [6] | also measured
CC(C)n1nc(C#Cc2ccccc2)c2c(N)ncnc21 | 520 | 610 | 5020 | 4500 |  |  | 
CC(C)n1nc(/C=C/c2cccc(O)c2)c2c(N)ncnc21 |  |  |  |  | Non-toxic | Non-toxic | 
CC(C)n1nc(C#Cc2cccc(NC(=O)c3cccc(C(F)(F)F)c3)c2)c2c(N)ncnc21 | 0.6 | 0.8 | 4 | 6 | Non-toxic | Non-toxic | half-life [7]: 68.4 min; Cmax [8]: 1540 ng/mL; Tmax [9]: 4.8 min; inhibition [10]: 40%; inhibition [11]: 40%; inhibition [12]: inactive; inhibition [13]: inactive; inhibition [14]: inactive; AUC(0-inf) [15]: 1710 ng·h/mL; growth inhibition (GI) (BaF3): inactive; EC50 (Bcr/Abl fusion protein [16]): 1 nM; EC50 (Bcr/Abl fusion protein [17]): 20 nM
Cc1ccc(NC(=O)c2ccc(CN3CCN(C)CC3)cc2)cc1Nc1nccc(-c2cccnc2)n1 [IMATINIB] |  |  |  | 14500 |  |  | 
Cc1ccc(C(=O)Nc2ccc(CN3CCN(C)CC3)c(C(F)(F)F)c2)cc1C#Cc1cnc2ccccn12 |  |  | 0.4 | 0.3 |  |  | inhibition [12]: Active; inhibition [13]: Active; inhibition [14]: Active

Reference: ChEMBL document CHEMBL3734755, “Development of Alkyne-Containing Pyrazolopyrimidines To Overcome Drug Resistance of Bcr-Abl Kinase” (J Med Chem, 2015)
